Measurements from US9290477B2, “Inhibitors of β-secretase” (Vitae Pharmaceuticals, Inc., priority 2012, dated 2016).

Key:
[1] = molecular target: truncated human beta-secretase, BACE1 (amino acids 1-454) (Homo sapiens (Human), UniProt P56817); assay: BACE1 Assay (Assay 1), fluorescence quench assay; assay type: biochemical; settings: Table 1; pH 4.4, 1 μM substrate peptide; read-out: BACE 1 IC50 nM (Assay 1)
Method: The substrate was dissolved at 1 mg/ml in DMSO.
The assay was performed in the presence of OptiMEM™ (supernatant collected over 24 h and cleared from cellular debris by centrifugation) containing the ectodomain of BACE1, 25 μl water containing the desired 2-fold concentration of test compound and 2% DMSO, 1 μM substrate peptide, 20 mM NaOAc, pH 4.4, and 0.04% Triton-X100 in a total assay volume of 50 μl in a 384 well plate. In general, 25 μl of compound dilution were added to the plate followed by the addition of 10 μl of BACE1 containing OptiMEM™ diluted 1:10 in water with 0.2% Triton X-100. The reaction was started with the addition of 15 μl substrate in NaOAc buffer. The reaction was incubated at rt (dark) in an Envision® multilabel reader (Perkin Elmer) and the cleavage of the substrate was recorded as kinetic for 60 min at ex: 485 nm, em: 538 nm. Blank wells containing no enzyme were included on each plate.
The intensity of fluorescence was regressed against time in order to derive velocities of reaction in all 384 wells. These velocities were used for calculating percent control using an uninhibited control containing 1% DMSO as 100% and a blank control performed in the absence of enzyme as 0%. IC50 values were calculated by fitting percent control vs. test compound concentration using Assay Explorer®.

[2] = system: Abeta1-x production in H4 neuroglioma cell line stably expressing human APP; assay: H4-APPwt Cell-Based Assay (Assay 2), production of Abeta1-x peptides; settings: Table 1; H4 cells expressing human APP, Abeta1-x by AlphaLISA, 18 h
Method: Cellular potency of the compounds was assessed in an assay monitoring production of Abeta1-x peptides in the H4 neuroglioma cell line (ATCC, Cat. #HTB-148) stably expressing human APP. Tested compounds were dissolved in DMSO and pre-diluted in the culture medium (DMEM containing 10% FBS and 1% penicillin/streptomycin) to achieve twice the final concentration of the compounds in the assay. Equal volumes of the 2× solutions of the tested compounds and cell suspension were added to a 96-well culture plate, so that each well contained ˜10,000 cells in a final volume of 200 μl. Final concentration of DMSO in the assay was 0.2%. The plates were incubated for 5 h at 37° C., 5% CO2 to allow cells to attach to the bottom of the wells in the presence of the tested compounds. The media was removed and replaced with fresh media containing tested compounds at the same final concentration. The plates were incubated for 18 h at 37° C., 5% CO2. Concentrations of Ab1-x were determined using AlphaLISA immunoassay (PerkinElmer, Cat. # AL288) following the manufacturer's protocol. Concentrations of Abeta1-x in the wells containing either DMSO or 10 μM beta-secretase inhibitor (BACE inhibitor IV, EMD Bioscience, Cat. #565788) were used as uninhibited and background controls, respectively, for calculating percent inhibition values for each well with the tested compounds.

Sequence of truncated human beta-secretase, BACE1 (amino acids 1-454) (P56817 22-454): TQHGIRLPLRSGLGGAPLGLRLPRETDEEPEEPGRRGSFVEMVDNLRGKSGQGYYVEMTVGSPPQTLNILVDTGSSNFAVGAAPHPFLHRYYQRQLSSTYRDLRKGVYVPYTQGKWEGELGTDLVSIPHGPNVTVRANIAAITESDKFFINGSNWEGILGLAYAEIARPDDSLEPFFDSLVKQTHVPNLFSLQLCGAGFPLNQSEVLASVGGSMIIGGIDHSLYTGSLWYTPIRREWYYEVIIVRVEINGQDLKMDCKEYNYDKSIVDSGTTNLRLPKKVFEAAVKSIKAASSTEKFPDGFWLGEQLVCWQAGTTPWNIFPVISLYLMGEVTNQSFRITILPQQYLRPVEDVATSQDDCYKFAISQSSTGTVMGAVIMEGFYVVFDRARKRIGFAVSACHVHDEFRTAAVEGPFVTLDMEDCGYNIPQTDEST

Row | SMILES | IC50 [1] | IC50 [2]
1 | CO[C@H]1[C@H](C)C[C@@]2(Cc3ccc(Br)cc3[C@@]23N=C(C)C(N)=N3)C[C@@H]1C [Example 1] | 4 nM | 4.5 nM
2 | CO[C@H]1CC[C@@]2(Cc3ccc(C#N)cc3[C@@]23N=C(C)C(N)=N3)C[C@@H]1C [Example 5] | 1.5 nM | 2 nM
3 | CO[C@H]1[C@H](C)C[C@@]2(Cc3ccc(C#N)cc3[C@@]23N=C(C)C(N)=N3)C[C@@H]1C [Example 2] | 3.5 nM | 4 nM
4 | CC1=N[C@]2(N=C1N)c1cc(C#N)ccc1C[C@@]21C[C@@H](C)[C@H](O)[C@@H](C)C1 [Example 3] | 37 nM | 34 nM
5 | CO[C@H]1CC[C@@]2(Cc3ccc(Br)cc3C23N=C(C)C(N)=N3)C[C@@H]1C (stereo partly shown) [Example 4] | – | 6.2 nM
6 | CC#Cc1cncc(-c2ccc3c(c2)[C@@]2(N=C(C)C(N)=N2)[C@@]2(C3)C[C@@H](C)[C@H](OC)[C@@H](C)C2)c1 [Example 7] | 8.2 nM | 4 nM
7 | CO[C@H]1[C@H](C)C[C@@]2(Cc3ccc(-c4cncc(F)c4)cc3[C@@]23N=C(C)C(N)=N3)C[C@@H]1C [Example 6] | 1.5 nM | 0.6 nM
